According to the supplement of paper PMC10307832:

How the values were obtained:
Test in all cases: relative viability (nuclei count vs DMSO), 5 days (fraction); higher = more cells survive
AZ628 + Crizotinib = compound: CC1=C(C=C(C=C1)NC(=O)C2=CC(=CC=C2)C(C)(C)C#N)NC3=CC4=C(C=C3)N=CN(C4=O)C [AZ628] + C[C@@H](Oc1cc(-c2cnn(C3CCNCC3)c2)cnc1N)c1c(Cl)ccc(F)c1Cl [Crizotinib] (partner 1 µM)
Outline: (§1)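 Relative viability equals treated-well nuclei counts divided by vehicle-well nuclei counts. Counts came from 4× images of lung cancer cell lines grown in 1536-well plates for 5 days after pin-tool dosing on the day after seeding. Dosing used one drug alone or a fixed anchor-drug dose plus five library-drug doses (not always all listed) in √10 steps, and values are medians of duplicate plates.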

[1] = compound: C[As](C)SC[C@H](NC(=O)CC[C@H](N)C(=O)O)C(=O)NCC(=O)O [Darinaparsin] + CC(C)C[C@H](NC(=O)[C@H](Cc1ccccc1)NC(=O)c1cnccn1)B(O)O [Bortezomib] (partner 0.002 µM)
Outline: as §1

QS11 + Phenformin = compound: C1CC2=C(C1)C=C(C=C2)OC3=NC(=C4C(=N3)N(C=N4)CC5=CC=C(C=C5)C6=CC=CC=C6)N[C@@H](CC7=CC=CC=C7)CO [QS11] + N=C(N)NC(=N)NCCc1ccccc1 [Phenformin] (partner 250 µM)
Outline: as §1

QS11 + Palbociclib = compound: C1CC2=C(C1)C=C(C=C2)OC3=NC(=C4C(=N3)N(C=N4)CC5=CC=C(C=C5)C6=CC=CC=C6)N[C@@H](CC7=CC=CC=C7)CO [QS11] + CC(=O)c1c(C)c2cnc(Nc3ccc(N4CCNCC4)cn3)nc2n(C2CCCC2)c1=O [Palbociclib] (partner 0.5 µM)
Outline: as §1

## HCC-827
AZ628 + Crizotinib; first compound 0.08 µM
  relative viability: 0.883
AZ628 + Crizotinib; first compound 0.253 µM
  relative viability: 0.946
AZ628 + Crizotinib; first compound 0.8 µM
  relative viability: 0.928
AZ628 + Crizotinib; first compound 2.53 µM
  relative viability: 0.921
AZ628 + Crizotinib; first compound 8 µM
  relative viability: 0.865
[1]; first compound 0.08 µM
  relative viability: 1.12
[1]; first compound 0.8 µM
  relative viability: 1.02
[1]; first compound 2.53 µM
  relative viability: 1.08
[1]; first compound 8 µM
  relative viability: 1.15
QS11 + Phenformin; first compound 0.08 µM
  relative viability: 0.447
QS11 + Phenformin; first compound 0.253 µM
  relative viability: 0.416
QS11 + Phenformin; first compound 0.8 µM
  relative viability: 0.366
QS11 + Phenformin; first compound 2.53 µM
  relative viability: 0.478
QS11 + Phenformin; first compound 8 µM
  relative viability: 0.547
QS11 + Palbociclib; first compound 0.08 µM
  relative viability: 0.527
QS11 + Palbociclib; first compound 0.253 µM
  relative viability: 0.501
QS11 + Palbociclib; first compound 0.8 µM
  relative viability: 0.445
QS11 + Palbociclib; first compound 2.53 µM
  relative viability: 0.599
QS11 + Palbociclib; first compound 8 µM
  relative viability: 0.479

## HOP-62
AZ628 + Crizotinib; first compound 0.08 µM
  relative viability: 1.06
AZ628 + Crizotinib; first compound 0.253 µM
  relative viability: 0.834
AZ628 + Crizotinib; first compound 0.8 µM
  relative viability: 0.926
AZ628 + Crizotinib; first compound 2.53 µM
  relative viability: 1.16
AZ628 + Crizotinib; first compound 8 µM
  relative viability: 0.412
[1]; first compound 0.08 µM
  relative viability: 1.31
[1]; first compound 0.8 µM
  relative viability: 0.784
[1]; first compound 2.53 µM
  relative viability: 1.12
[1]; first compound 8 µM
  relative viability: 0.671
QS11 + Phenformin; first compound 0.08 µM
  relative viability: 0.677
QS11 + Phenformin; first compound 0.253 µM
  relative viability: 0.743
QS11 + Phenformin; first compound 0.8 µM
  relative viability: 0.657
QS11 + Phenformin; first compound 2.53 µM
  relative viability: 0.497
QS11 + Phenformin; first compound 8 µM
  relative viability: 0.669
QS11 + Palbociclib; first compound 0.08 µM
  relative viability: 0.471
QS11 + Palbociclib; first compound 0.253 µM
  relative viability: 0.517
QS11 + Palbociclib; first compound 0.8 µM
  relative viability: 0.455
QS11 + Palbociclib; first compound 2.53 µM
  relative viability: 0.369
QS11 + Palbociclib; first compound 8 µM
  relative viability: 0.281

## LC-2-ad
AZ628 + Crizotinib; first compound 0.08 µM
  relative viability: 0.503
AZ628 + Crizotinib; first compound 0.253 µM
  relative viability: 0.457
AZ628 + Crizotinib; first compound 0.8 µM
  relative viability: 0.448
AZ628 + Crizotinib; first compound 2.53 µM
  relative viability: 0.44
AZ628 + Crizotinib; first compound 8 µM
  relative viability: 0.505
[1]; first compound 0.08 µM
  relative viability: 1.2
[1]; first compound 0.8 µM
  relative viability: 1.02
[1]; first compound 2.53 µM
  relative viability: 0.951
[1]; first compound 8 µM
  relative viability: 1.33
QS11 + Phenformin; first compound 0.08 µM
  relative viability: 0.535
QS11 + Phenformin; first compound 0.253 µM
  relative viability: 0.482
QS11 + Phenformin; first compound 0.8 µM
  relative viability: 0.535
QS11 + Phenformin; first compound 2.53 µM
  relative viability: 0.551
QS11 + Phenformin; first compound 8 µM
  relative viability: 0.599
QS11 + Palbociclib; first compound 0.08 µM
  relative viability: 0.512
QS11 + Palbociclib; first compound 0.253 µM
  relative viability: 0.47
QS11 + Palbociclib; first compound 0.8 µM
  relative viability: 0.405
QS11 + Palbociclib; first compound 2.53 µM
  relative viability: 0.451
QS11 + Palbociclib; first compound 8 µM
  relative viability: 0.501

## LCLC-103H
AZ628 + Crizotinib; first compound 0.08 µM
  relative viability: 1.13
AZ628 + Crizotinib; first compound 0.253 µM
  relative viability: 1.08
AZ628 + Crizotinib; first compound 0.8 µM
  relative viability: 1.11
AZ628 + Crizotinib; first compound 2.53 µM
  relative viability: 1.09
AZ628 + Crizotinib; first compound 8 µM
  relative viability: 1.01
[1]; first compound 0.08 µM
  relative viability: 1.05
[1]; first compound 0.8 µM
  relative viability: 0.978
[1]; first compound 2.53 µM
  relative viability: 1.14
[1]; first compound 8 µM
  relative viability: 1.35
QS11 + Phenformin; first compound 0.08 µM
  relative viability: 0.315
QS11 + Phenformin; first compound 0.253 µM
  relative viability: 0.403
QS11 + Phenformin; first compound 0.8 µM
  relative viability: 0.341
QS11 + Phenformin; first compound 2.53 µM
  relative viability: 0.342
QS11 + Phenformin; first compound 8 µM
  relative viability: 0.382
QS11 + Palbociclib; first compound 0.08 µM
  relative viability: 0.498
QS11 + Palbociclib; first compound 0.253 µM
  relative viability: 0.506
QS11 + Palbociclib; first compound 2.53 µM
  relative viability: 0.535
QS11 + Palbociclib; first compound 8 µM
  relative viability: 0.481

## LOU-NH91
AZ628 + Crizotinib; first compound 0.08 µM
  relative viability: 0.721
AZ628 + Crizotinib; first compound 0.253 µM
  relative viability: 0.755
AZ628 + Crizotinib; first compound 0.8 µM
  relative viability: 0.755
AZ628 + Crizotinib; first compound 2.53 µM
  relative viability: 0.731
AZ628 + Crizotinib; first compound 8 µM
  relative viability: 0.606
[1]; first compound 0.08 µM
  relative viability: 0.495
[1]; first compound 0.8 µM
  relative viability: 0.56
[1]; first compound 2.53 µM
  relative viability: 0.537
[1]; first compound 8 µM
  relative viability: 0.519
QS11 + Phenformin; first compound 0.08 µM
  relative viability: 0.685
QS11 + Phenformin; first compound 0.253 µM
  relative viability: 0.62
QS11 + Phenformin; first compound 0.8 µM
  relative viability: 0.657
QS11 + Phenformin; first compound 2.53 µM
  relative viability: 0.67
QS11 + Phenformin; first compound 8 µM
  relative viability: 0.663
QS11 + Palbociclib; first compound 0.08 µM
  relative viability: 0.527
QS11 + Palbociclib; first compound 0.253 µM
  relative viability: 0.536
QS11 + Palbociclib; first compound 0.8 µM
  relative viability: 0.513
QS11 + Palbociclib; first compound 2.53 µM
  relative viability: 0.58
QS11 + Palbociclib; first compound 8 µM
  relative viability: 0.629

## LU99A
AZ628 + Crizotinib; first compound 0.08 µM
  relative viability: 0.601
AZ628 + Crizotinib; first compound 0.253 µM
  relative viability: 0.505
AZ628 + Crizotinib; first compound 0.8 µM
  relative viability: 0.586
AZ628 + Crizotinib; first compound 2.53 µM
  relative viability: 0.566
AZ628 + Crizotinib; first compound 8 µM
  relative viability: 0.286
[1]; first compound 0.08 µM
  relative viability: 1.33
[1]; first compound 0.8 µM
  relative viability: 1.01
[1]; first compound 2.53 µM
  relative viability: 1.17
[1]; first compound 8 µM
  relative viability: 1.21
QS11 + Phenformin; first compound 0.08 µM
  relative viability: 0.768
QS11 + Phenformin; first compound 0.253 µM
  relative viability: 0.975
QS11 + Phenformin; first compound 0.8 µM
  relative viability: 1.07
QS11 + Phenformin; first compound 2.53 µM
  relative viability: 0.827
QS11 + Phenformin; first compound 8 µM
  relative viability: 0.869
QS11 + Palbociclib; first compound 0.08 µM
  relative viability: 0.421
QS11 + Palbociclib; first compound 0.253 µM
  relative viability: 0.469
QS11 + Palbociclib; first compound 0.8 µM
  relative viability: 0.437
QS11 + Palbociclib; first compound 2.53 µM
  relative viability: 0.4
QS11 + Palbociclib; first compound 8 µM
  relative viability: 0.395

## LXF-289
AZ628 + Crizotinib; first compound 0.08 µM
  relative viability: 0.791
AZ628 + Crizotinib; first compound 0.253 µM
  relative viability: 0.749
AZ628 + Crizotinib; first compound 0.8 µM
  relative viability: 0.768
AZ628 + Crizotinib; first compound 2.53 µM
  relative viability: 0.76
AZ628 + Crizotinib; first compound 8 µM
  relative viability: 0.497
[1]; first compound 0.08 µM
  relative viability: 1.09
[1]; first compound 0.8 µM
  relative viability: 1.03
[1]; first compound 2.53 µM
  relative viability: 0.81
[1]; first compound 8 µM
  relative viability: 1.19
QS11 + Phenformin; first compound 0.08 µM
  relative viability: 0.468
QS11 + Phenformin; first compound 0.253 µM
  relative viability: 0.509
QS11 + Phenformin; first compound 0.8 µM
  relative viability: 0.486
QS11 + Phenformin; first compound 2.53 µM
  relative viability: 0.495
QS11 + Phenformin; first compound 8 µM
  relative viability: 0.541
QS11 + Palbociclib; first compound 0.08 µM
  relative viability: 0.639
QS11 + Palbociclib; first compound 0.253 µM
  relative viability: 0.634
QS11 + Palbociclib; first compound 0.8 µM
  relative viability: 0.502
QS11 + Palbociclib; first compound 2.53 µM
  relative viability: 0.564
QS11 + Palbociclib; first compound 8 µM
  relative viability: 0.621

## NCI-H23
AZ628 + Crizotinib; first compound 0.08 µM
  relative viability: 0.498
AZ628 + Crizotinib; first compound 0.253 µM
  relative viability: 0.49
AZ628 + Crizotinib; first compound 0.8 µM
  relative viability: 0.347
AZ628 + Crizotinib; first compound 2.53 µM
  relative viability: 0.493
AZ628 + Crizotinib; first compound 8 µM
  relative viability: 0.456
[1]; first compound 0.08 µM
  relative viability: 1.17
[1]; first compound 0.8 µM
  relative viability: 1.19
[1]; first compound 2.53 µM
  relative viability: 0.795
[1]; first compound 8 µM
  relative viability: 1.14
QS11 + Phenformin; first compound 0.08 µM
  relative viability: 0.769
QS11 + Phenformin; first compound 0.253 µM
  relative viability: 0.779
QS11 + Phenformin; first compound 0.8 µM
  relative viability: 0.853
QS11 + Phenformin; first compound 2.53 µM
  relative viability: 0.678
QS11 + Phenformin; first compound 8 µM
  relative viability: 0.877
QS11 + Palbociclib; first compound 0.08 µM
  relative viability: 0.492
QS11 + Palbociclib; first compound 0.253 µM
  relative viability: 0.387
QS11 + Palbociclib; first compound 0.8 µM
  relative viability: 0.354
QS11 + Palbociclib; first compound 2.53 µM
  relative viability: 0.347
QS11 + Palbociclib; first compound 8 µM
  relative viability: 0.329
